# Measured values taken from publication PMC10667265 (Scientific Reports, 2023).
# Read-outs that look alike come from different tables or passages of the source. Where no end group is shown, it is not given here.
# Legend:
# [1] = exogenous application to leaves; cited from earlier work
# Text: In Arabidopsis, PIPs are encoded by 11 genes. […] Recently, the PAMP-induced peptides StPIP1 to StPIP4 were described in potato (Solanum tuberosum[23]).
# [2] = for amidated StPIP1_1 remaining: two independent experiments, n = 16 (Fig. 6A)
# [3] = infiltrated into the abaxial side of leaves of potato plants; methanolic extracts of leaf disks; conditions: potato (Solanum tuberosum cv. Désirée), 20 °C, up to 8 h
# potato = conditions: used as control for Pep-13; cited from earlier work
# Description: Potato plants (Solanum tuberosum cv. Désirée) were cultivated in sterile tissue culture in a phytochamber (16 h light, ~ 140 µE, 22 °C). Plants were transferred to steam-sterilized soil and grown for 4 weeks under long day conditions in a phytochamber (16 h light, ~ 140 µE, 60% humidity, 20 °C). PAMP treatment was performed with leaf disks that were cut out from 4-week-old potato plants with a biopsy puncher (4 mm diameter) and placed with the abaxial side onto the surface of 250 µl of water in a 96-well plate. The plate was incubated overnight at 22 °C in the dark. Water from the wells was re ...
substance,measurement,setting,value
TLGGIKAGPSPGEGHKVVNSHHQ [StPIP1],ROS production,[1],does not induce
same,increases in the cytosolic Ca2+ concentrations,[1],does not induce
"VWNQPVRGFKVYE-NH2 [Pep-13, reference compound]",time within which the amidated peptide was converted to the acidic form,"[2]; 100 µM amidated Pep-13 infiltrated into potato leaves, LC-MS, two independent experiments (Fig. 6C)",≤ 30 min
VWNQPVRGFKVYE [acidic form of Pep-13],time within which the acidic form was degraded,"[2]; after infiltration of 100 µM amidated Pep-13 into potato leaves, LC-MS (Fig. 6D)",≤ 1 h
VWNQPVRGFKVYE-NH2,cleaved bond,[3],"E-NH2, within 30 min"
VANQPVRGFKVYE [W2A],elicitor activity relative to Pep-13,potato,nearly inactive
RLPSGPSPRGPGH-NH2,cleaved bond,[3],"H-NH2, within minutes"
RLPSGPSPRGPGH-NH2 [StPIP1_1],amidated StPIP1_1 remaining,"[2]; 100 µM amidated peptide infiltrated into leaves of phytochamber-grown potato plants, 30 min after infiltration, methanolic leaf extracts, LC-MS",20%
same,amidated StPIP1_1 remaining,"[2]; 100 µM amidated peptide infiltrated into potato leaves, 1 h after infiltration, LC-MS",10%
